From patent US12371428B2 (Exelixis, Inc., priority 2019, dated 2025)
Where a name gives a salt, the structure may show the parent alone.

Assays:
[1] = target: Met (phospho-Met, HGF-stimulated PC-3 prostate cancer cells) (Homo sapiens (Human), UniProt P08581); experiment: Met autophosphorylation ELISA in PC-3 cells (Example F); assay type: cell-based; conditions: cellular activity; Met autophosphorylation ELISA in PC-3 cells; read-out: c-Met IC50
Procedure, shortened: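 Sandwich ELISA for phospho-Met (panTyr) in PC-3 lysates. Cells starved 3 h serum-free, compound 1 h (8-pt curve, 0.3% DMSO), HGF 100 ng/mL 10 min. 100% = HGF + DMSO; 0% = HGF + reference inhibitor. IC50 by 4-parameter fit.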

[2] = target: KDR (phospho-KDR, VEGF165-stimulated HUVEC cells) (Homo sapiens (Human), UniProt P35968); experiment: KDR autophosphorylation ELISA in HUVEC cells (Example G); assay type: cell-based; conditions: cellular activity; KDR autophosphorylation ELISA in HUVEC cells
Procedure, shortened: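 Cells seeded, grown 24 h at 37 °C, starved 24 h serum-free; cpd 8-pt curve, 0.3% DMSO, 1 h; VEGF165 100 ng/mL, 5 min; cold PBS wash, lysis with orthovanadate and protease/phosphatase inhibitors; pKDR ELISA; IC50 by 4-parameter logistic regression.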

Met (phospho-Met, HGF-stimulated PC-3 prostate cancer cells), sequence (P08581 25-1390): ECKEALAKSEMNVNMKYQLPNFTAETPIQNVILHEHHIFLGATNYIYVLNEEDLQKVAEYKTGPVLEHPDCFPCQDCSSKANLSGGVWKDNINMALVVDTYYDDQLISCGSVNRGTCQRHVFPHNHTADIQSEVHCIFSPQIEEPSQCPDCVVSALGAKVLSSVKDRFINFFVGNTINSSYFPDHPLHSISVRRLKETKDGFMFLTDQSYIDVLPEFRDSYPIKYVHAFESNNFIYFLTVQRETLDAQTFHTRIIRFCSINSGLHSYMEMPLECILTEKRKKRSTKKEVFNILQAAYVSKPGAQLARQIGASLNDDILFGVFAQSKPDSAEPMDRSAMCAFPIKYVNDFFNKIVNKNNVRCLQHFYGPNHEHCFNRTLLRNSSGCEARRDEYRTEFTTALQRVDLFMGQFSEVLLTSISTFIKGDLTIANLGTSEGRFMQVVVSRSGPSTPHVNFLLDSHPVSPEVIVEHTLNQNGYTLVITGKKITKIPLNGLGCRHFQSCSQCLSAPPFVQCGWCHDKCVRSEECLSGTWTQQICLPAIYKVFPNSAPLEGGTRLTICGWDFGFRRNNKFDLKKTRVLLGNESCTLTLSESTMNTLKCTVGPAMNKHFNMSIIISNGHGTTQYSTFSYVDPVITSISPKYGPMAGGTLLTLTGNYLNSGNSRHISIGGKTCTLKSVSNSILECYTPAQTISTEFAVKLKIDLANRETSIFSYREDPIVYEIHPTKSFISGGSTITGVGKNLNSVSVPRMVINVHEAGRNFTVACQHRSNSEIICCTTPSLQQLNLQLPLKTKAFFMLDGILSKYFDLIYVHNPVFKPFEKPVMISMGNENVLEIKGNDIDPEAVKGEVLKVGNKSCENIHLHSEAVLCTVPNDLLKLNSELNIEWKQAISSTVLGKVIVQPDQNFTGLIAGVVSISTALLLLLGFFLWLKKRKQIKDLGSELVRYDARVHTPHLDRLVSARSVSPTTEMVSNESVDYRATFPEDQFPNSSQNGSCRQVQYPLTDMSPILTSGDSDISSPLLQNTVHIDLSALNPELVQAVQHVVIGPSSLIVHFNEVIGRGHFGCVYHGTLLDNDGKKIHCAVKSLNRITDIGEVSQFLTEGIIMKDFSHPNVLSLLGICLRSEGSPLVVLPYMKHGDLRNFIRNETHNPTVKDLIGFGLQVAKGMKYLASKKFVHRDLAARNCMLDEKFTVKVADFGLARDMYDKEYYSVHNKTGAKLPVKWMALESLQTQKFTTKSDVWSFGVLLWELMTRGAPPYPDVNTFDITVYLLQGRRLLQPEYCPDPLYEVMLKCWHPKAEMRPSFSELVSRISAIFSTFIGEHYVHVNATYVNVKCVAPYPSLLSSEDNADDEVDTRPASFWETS
KDR (phospho-KDR, VEGF165-stimulated HUVEC cells), sequence (P35968 20-1356): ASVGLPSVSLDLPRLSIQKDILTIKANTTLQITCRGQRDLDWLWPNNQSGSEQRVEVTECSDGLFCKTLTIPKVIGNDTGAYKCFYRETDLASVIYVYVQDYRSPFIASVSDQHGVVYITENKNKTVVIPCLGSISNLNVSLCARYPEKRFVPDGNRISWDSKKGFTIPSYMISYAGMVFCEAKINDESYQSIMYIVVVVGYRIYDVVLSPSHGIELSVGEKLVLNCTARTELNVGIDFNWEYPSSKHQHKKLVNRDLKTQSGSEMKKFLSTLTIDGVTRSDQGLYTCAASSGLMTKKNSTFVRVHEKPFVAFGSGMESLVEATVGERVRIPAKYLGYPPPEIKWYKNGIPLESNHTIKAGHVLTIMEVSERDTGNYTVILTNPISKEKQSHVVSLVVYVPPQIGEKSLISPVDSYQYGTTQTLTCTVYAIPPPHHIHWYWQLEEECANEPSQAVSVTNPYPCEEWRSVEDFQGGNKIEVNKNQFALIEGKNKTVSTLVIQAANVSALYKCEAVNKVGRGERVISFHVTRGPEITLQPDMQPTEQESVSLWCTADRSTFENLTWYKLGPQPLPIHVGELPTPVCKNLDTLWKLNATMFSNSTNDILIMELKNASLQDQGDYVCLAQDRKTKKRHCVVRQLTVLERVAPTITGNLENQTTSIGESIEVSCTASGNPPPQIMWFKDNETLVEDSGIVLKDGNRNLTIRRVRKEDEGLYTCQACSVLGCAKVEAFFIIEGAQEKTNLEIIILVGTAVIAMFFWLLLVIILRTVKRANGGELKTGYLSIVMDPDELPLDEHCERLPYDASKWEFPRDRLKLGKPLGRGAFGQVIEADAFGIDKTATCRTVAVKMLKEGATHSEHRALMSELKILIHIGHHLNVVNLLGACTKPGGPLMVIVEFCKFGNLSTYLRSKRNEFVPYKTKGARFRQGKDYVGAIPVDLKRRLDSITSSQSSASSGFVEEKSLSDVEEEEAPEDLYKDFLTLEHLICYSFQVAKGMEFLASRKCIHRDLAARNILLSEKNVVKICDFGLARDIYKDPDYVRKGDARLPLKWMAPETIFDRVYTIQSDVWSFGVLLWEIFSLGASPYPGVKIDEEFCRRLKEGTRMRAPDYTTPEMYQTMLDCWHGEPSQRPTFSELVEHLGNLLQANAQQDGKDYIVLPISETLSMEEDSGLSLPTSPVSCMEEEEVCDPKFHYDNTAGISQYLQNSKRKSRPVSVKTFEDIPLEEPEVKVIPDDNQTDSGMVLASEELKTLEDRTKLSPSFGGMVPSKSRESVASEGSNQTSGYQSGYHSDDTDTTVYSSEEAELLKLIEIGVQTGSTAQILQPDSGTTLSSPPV

| SMILES | IC50 [1] | IC50 [2] |
| --- | --- | --- |
| CNC(=O)c1cnc2c(Oc3ccc(NC(=O)c4cnc(C)c(-c5ccc(F)cc5)c4O)cc3F)ccnc2c1 [Compound 578, 8-[2-Fluoro-4-[[5-(4-fluorophenyl)-4-hydroxy-6-methylpyridine-3-carbonyl]amino]phenoxy]-N-methyl-1,5-naphthyridine-3-carboxamide] | > 0.3 µM | > 0.3 µM |
| Cc1nc(C)c(-c2ccc(F)cc2)c(O)c1C(=O)Nc1ccc(Oc2ccnc3cc(C(C)C)cnc23)cc1 [Compound 598, 5-(4-Fluorophenyl)-4-hydroxy-2,6-dimethyl-N-[4-[(7-propan-2-yl-1,5-naphthyridin-4-yl)oxy]phenyl]pyridine-3-carboxamide] | < 0.1 µM | < 0.1 µM |
| Cc1nc2c(Oc3ccc(NC(=O)c4cn(C(C)C)c(C)c(-c5ccc(F)cc5)c4=O)cc3F)ccnc2cc1-c1cnn(C(F)F)c1 [Compound 614, N-[4-[[7-[1-(Difluoromethyl)pyrazol-4-yl]-6-methyl-1,5-naphthyridin-4-yl]oxy]-3-fluorophenyl]-5-(4-fluorophenyl)-6-methyl-4-oxo-1-propan-2-ylpyridine-3-carboxamide hydrochloride] | 0.1 to 0.3 µM | > 0.3 µM |
| COCCOc1nc2c(Oc3ccc(NC(=O)c4cnc(C)c(-c5ccc(F)cc5C)c4O)cc3F)ccnc2cc1OC [Compound 144, N-[3-Fluoro-4-[[7-methoxy-6-(2-methoxyethoxy)-1,5-naphthyridin-4-yl]oxy]phenyl]-5-(4-fluoro-2-methylphenyl)-4-hydroxy-6-methylpyridine-3-carboxamide] | < 0.1 µM | < 0.1 µM |
| Cc1ncc(C(=O)Nc2ccc(Oc3ccnc4cnccc34)cc2)c(O)c1-c1ccc(F)cc1 [Compound 643, 5-(4-fluorophenyl)-4-hydroxy-6-methyl-N-[4-(1,7-naphthyridin-4-yloxy)phenyl]pyridine-3-carboxamide] | < 0.1 µM | < 0.1 µM |
| CCn1cc(C(=O)Nc2ccc(Oc3ccnc4cc(OC)cnc34)c(F)c2)c(=O)c(-c2ccc(F)cc2)c1 [Compound 170, 1-Ethyl-N-[3-fluoro-4-[(7-methoxy-1,5-naphthyridin-4-yl)oxy]phenyl]-5-(4-fluorophenyl)-4-oxopyridine-3-carboxamide] | < 0.1 µM | > 0.3 µM |
| COc1cnc2c(Oc3ccc(NC(=O)c4cn(OC)cc(-c5ccc(F)cc5)c4=O)cc3F)ccnc2c1 [Compound 128, N-[3-Fluoro-4-[(7-methoxy-1,5-naphthyridin-4-yl)oxy]phenyl]-5-(4-fluorophenyl)-1-methoxy-4-oxopyridine-3-carboxamide] | < 0.1 µM | < 0.1 µM |
| COc1cc2ncnc(Oc3ccc(NC(=O)c4cn(-c5cnn(C)c5)cc(-c5ccc(F)cc5)c4=O)cc3F)c2nc1OC [Compound 637, N-[4-(6,7-dimethoxyprido[3,2-d]pyrimidin-4-yl)oxy-3-fluorophenyl]-5-(4-fluorophenyl)-1-(1-methylpyrazol-4-yl)-4-oxopyridine-3-carboxamide] | < 0.1 µM | > 0.3 µM |
| COc1cc2nccc(Oc3ccc(NC(=O)c4cn(C(C)C)c(C)c(-c5ccccc5)c4=O)cc3F)c2nc1OC [Compound 29, N-[4-[(6,7-Dimethoxy-1,5-naphthyridin-4-yl)oxy]-3-fluorophenyl]-6-methyl-4-oxo-5-phenyl-1-propan-2-ylpyridine-3-carboxamide hydrochloride] | < 0.1 µM | 0.1 to 0.3 µM |
| Cc1nc2c(Oc3ccc(NC(=O)c4cnc(C)c(-c5ccc(F)cc5)c4O)cc3)ccnc2cc1-c1cnn(C(F)F)c1 [Compound 617, N-[4-[[7-[1-(Difluoromethyl)pyrazol-4-yl]-6-methyl-1,5-naphthyridin-4-yl]oxy]phenyl]-5-(4-fluorophenyl)-4-hydroxy-6-methylpyridine-3-carboxamide hydrochloride] | < 0.1 µM | < 0.1 µM |
| CCc1nc2c(Oc3ccc(NC(=O)c4cnc(C)c(-c5ccc(F)cc5)c4O)cc3F)ccnc2cc1OC [Compound 589, N-[4-[(6-Ethyl-7-methoxy-1,5-naphthyridin-4-yl)oxy]-3-fluorophenyl]-5-(4-fluorophenyl)-4-hydroxy-6-methylpyridine-3-carboxamide] | < 0.1 µM | < 0.1 µM |
| COc1cnc2c(Oc3ccc(NC(=O)c4cn(C(C)(C)C)c(C)c(-c5ccc(F)cc5)c4=O)cc3F)ccnc2c1 [Compound 166, 1-tert-Butyl-N-[3-fluoro-4-[(7-methoxy-1,5-naphthyridin-4-yl)oxy]phenyl]-5-(4-fluorophenyl)-6-methyl-4-oxopyridine-3-carboxamide] | < 0.1 µM | > 0.3 µM |
| COc1cc2nccc(Oc3ccc(NC(=O)c4cnc(C)c(-c5ccc(F)cc5)c4O)cc3)c2nc1OC [Compound 119, N-[4-[(6,7-Dimethoxy-1,5-naphthyridin-4-yl)oxy]phenyl]-5-(4-fluorophenyl)-4-hydroxy-6-methylpyridine-3-carboxamide] | < 0.1 µM | < 0.1 µM |
| COc1cc2ncnc(Oc3ccc(NC(=O)c4cn(C(C)C)cc(-c5ccc(F)cc5)c4=O)cc3F)c2nc1OC [Compound 636, N-[4-(6,7-dimethoxypyrido[3,2-d]pyrimidin-4-yl)oxy-3-fluorophenyl]-5-(4-fluorophenyl)-4-oxo-1-propan-2-ylpyridine-3-carboxamide] | < 0.1 µM | > 0.3 µM |
| Cc1ncc(C(=O)Nc2ccc(Oc3ccnc4cc(C(C)C)cnc34)c(F)c2)c(O)c1-c1ccc(F)cc1 [Compound 596, 5-(4-Fluorophenyl)-N-[3-fluoro-4-[(7-propan-2-yl-1,5-naphthyridin-4-yl)oxy]phenyl]-4-hydroxy-6-methylpyridine-3-carboxamide] | < 0.1 µM | < 0.1 µM |
| CNc1c(-c2ccc(F)cc2)c(=O)c(C(=O)Nc2ccc(Oc3ccnc4cc(OC)cnc34)c(F)c2)cn1C [Compound 585, N-[3-Fluoro-4-[(7-methoxy-1,5-naphthyridin-4-yl)oxy]phenyl]-5-(4-fluorophenyl)-1-methyl-6-(methylamino)-4-oxopyridine-3-carboxamide] | < 0.1 µM | > 0.3 µM |
| COc1cc2c(Oc3ccc(NC(=O)c4cn(C5CC5)c(C)c(-c5ccc(F)cc5)c4=O)cc3F)ccnc2cn1 [Compound 640, 1-cyclopropyl-N-[3-fluoro-4-[(6-methoxy-1,7-naphthyridin-4-yl)oxy]phenyl]-5-(4-fluorophenyl)-6-methyl-4-oxopyridine-3-carboxamide] | < 0.1 µM | > 0.3 µM |
| COc1cnc2c(Oc3ccc(NC(=O)c4cn(C)c(C#N)c(-c5ccc(F)cc5)c4=O)cc3F)ccnc2c1 [Compound 586, 6-Cyano-N-[3-fluoro-4-[(7-methoxy-1,5-naphthyridin-4-yl)oxy]phenyl]-5-(4-fluorophenyl)-1-methyl-4-oxopyridine-3-carboxamide] | 0.1 to 0.3 µM | > 0.3 µM |
| COc1cc2nccc(Oc3ccc(NC(=O)c4cn(CCN5CCOCC5)cc(-c5ccc(F)cc5)c4=O)cc3F)c2nc1OC [Compound 157, N-[4-[(6,7-Dimethoxy-1,5-naphthyridin-4-yl)oxy]-3-fluorophenyl]-5-(4-fluorophenyl)-1-(2-morpholin-4-ylethyl)-4-oxopyridine-3-carboxamide] | < 0.1 µM | 0.1 to 0.3 µM |
